The inhibition is the change of the read-out against control, counted positive when it falls.

The record followed here is patent US20050101595A1, “N-containing cycloalkyl-substituted amino-thiazole derivatives and pharmaceutical compositions for inhibiting cell proliferation and methods for their use” (PFIZER INC., priority 2003, published 2005).

For one experiment, the target named is CDK2/Cyclin A (Homo sapiens, UniProt P24941). Description: Inhibition of CDK2/Cyclin A Retinoblastoma Kinase Activity. Format: biochemical. As to conditions: for inhibition at 0.05 µM: read-out: % inhibition of CDK2 (@ 0.05 μM), compound at 0.05 μM. On the procedure:
Cyclin-dependent kinase activity was measured by quantifying the enzyme-catalyzed, time-dependent incorporation of radioactive phosphate from [^32P]ATP or [^33P]ATP into a protein substrate. Unless noted otherwise, assays were performed in 96-well plates in a total volume of 50 μL, in the presence of 10 mM HEPES (N-[2-hydroxyethyl]piperazine-N′-[2-ethanesulfonic acid]) (pH 7.4), 10 mM MgCl2, 25 μM adenosine triphosphate (ATP), 1 mg/mL ovalbumin, 5 μg/mL leupeptin, 1 mM dithiothreitol, 10 mM β-glycerophosphate, 0.1 mM sodium vanadate, 1 mM sodium fluoride, 2.5 mM ethylene glycol-bis(β-aminoethyl ether)-N,N,N′N′-tetraacetic acid (EGTA), 2% (v/v) dimethylsulfoxide, and 0.03-0.4 μCi [^32/33P]ATP per reaction. Reactions were initiated with enzyme, incubated at 30° C., and terminated after 20 minutes by the addition of ethylenediaminetetraacetic acid (EDTA) to 250 mM. The phosphorylated substrate was then captured on a nitrocellulose or phosphocellulose membrane using a 96-well filtration manifold, and unincorporated radioactivity was removed by repeated washing with 0.85% phosphoric acid. Radioactivity was quantified by exposing the dried membranes to a phosphorimager.
Inhibition was measured relative to control wells that contained all reaction components including 2% (v/v) DMSO but no compound, after subtraction of background radioactivity measured in the absence of enzyme. Apparent Ki values of discrete compounds were measured by assaying enzyme activity in the presence of different inhibitor compound concentrations and subtracting the background radioactivity measured in the absence of enzyme. The kinetic parameters (kcat, Km for ATP) were measured for each enzyme under the usual assay conditions by determining the dependence of initial rates on ATP concentration. Inhibition data were fit to an equation for competitive inhibition using Kaleidagraph (Synergy Software), or were fit to an equation for competitive tight-binding inhibition using the software KineTic (BioKin, Ltd.).
Inhibition of CDK2/Cyclin A Retinoblastoma Kinase Activity:
CDK2 was purified using published methodology (Rosenblatt et al., “Purification and Crystallization of Human Cyclin-dependent Kinase 2,” J. Mol. Biol., vol. 230, 1993, pp. 1317-1319) from insect cells that had been infected with a baculovirus expression vector. […] A complex of CDK2 and proteolyzed cyclin A was prepared and purified by gel filtration. The substrate for this assay was the same Rb substrate fragment used for the CDK4 assays, and the methodology of the CDK2/delta cyclin A and the CDK4/delta cyclin D3 assays was essentially the same, except that CDK2 was present at 10 nM or 19 nM. The duration of the assay was 60 or 75 minutes, during which the time-dependence of product formation was linear and initial rate conditions were met. And, the percent inhibitions of the compounds of Example O through Example R were calculated as described above and shown in Table 2.

Another experiment concerns HCT-116 cell line. Description: Inhibition of cell growth, tetrazolium salt (MTT) assay. Format: cell-based. As to conditions: MTT, compound at 0.175 uM; for inhibition at 0.175 µM: Homo sapiens, HCT-116, HCT-116 cells. In a few lines:
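First, cells were seeded in McCoy's 5A medium and held 4 h. Next, inhibitor concentrations in 0.5% (v/v) DMSO were applied for three to five days at 37° C, 5% CO2. Finally, after 4 h with 0.2 mg/mL MTT and medium removal, solubilized formazan was measured at 540 nm.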

`Nc1nc(NC2CCN(S(=O)(=O)CCCNCCN3CCCCC3)CC2)sc1C(=O)c1c(F)cccc1F` [Example V5]: the inhibition at 0.05 µM on CDK2/Cyclin A came to 79%. The inhibition at 0.175 µM in the experiment on HCT-116 cell line is 7%.
The matching figures for `Nc1nc(NC2CCN(S(=O)(=O)CCCNCc3cccnc3)CC2)sc1C(=O)c1c(F)cccc1F` [Example V6]: 80% and 1%.
In the case of `Nc1nc(NC2CCN(S(=O)(=O)CCCNCc3ccccn3)CC2)sc1C(=O)c1c(F)cccc1F` [Example V7], at CDK2/Cyclin A, the inhibition at 0.05 µM was 82%. The inhibition at 0.175 µM in the experiment with HCT-116 cell line was determined as 0%.
The matching figures for `Nc1nc(NC2CCN(S(=O)(=O)CCCNCCc3ccccn3)CC2)sc1C(=O)c1c(F)cccc1F` [Example V8]: 81% and 18%.
Taken in the same sequence, the figures for `Nc1nc(NC2CCN(S(=O)(=O)CCCNCCN3CCCC3)CC2)sc1C(=O)c1c(F)cccc1F` [Example V9] were 78% and 13%.
The matching figures for `Nc1nc(NC2CCN(S(=O)(=O)CCCNCCN3CCOCC3)CC2)sc1C(=O)c1c(F)cccc1F` [Example V10]: 69% and 3%.
On to `Nc1nc(NC2CCN(S(=O)(=O)CCCNCCOCCO)CC2)sc1C(=O)c1c(F)cccc1F` [Example V11], for which the inhibition at 0.05 µM on CDK2/Cyclin A is 74%. Also, in the experiment on HCT-116 cell line, the inhibition at 0.175 µM was determined as 11%.
Regarding `Nc1nc(NC2CCN(S(=O)(=O)CCCNCc3ccccc3)CC2)sc1C(=O)c1c(F)cccc1F` [Example V12], the inhibition at 0.05 µM at CDK2/Cyclin A is 93%. Further, the inhibition at 0.175 µM in the experiment on HCT-116 cell line stood at 69%.
Taken in the same sequence, the figures for `CN(CCCS(=O)(=O)N1CCC(Nc2nc(N)c(C(=O)c3c(F)cccc3F)s2)CC1)Cc1ccccc1` [Example V13] were 90% and 79%.
Take `CCN(CC)CCCNCCCS(=O)(=O)N1CCC(Nc2nc(N)c(C(=O)c3c(F)cccc3F)s2)CC1` [Example V14]: the inhibition at 0.05 µM at CDK2/Cyclin A is 75%. Moreover, the inhibition at 0.175 µM in the experiment with HCT-116 cell line is 18%.
Taken in the same sequence, the figures for `CN(C)CCCNCCCS(=O)(=O)N1CCC(Nc2nc(N)c(C(=O)c3c(F)cccc3F)s2)CC1` [Example V15] were 62% and 11%.
The matching figures for `NC(=O)C1CCCN(CCCS(=O)(=O)N2CCC(Nc3nc(N)c(C(=O)c4c(F)cccc4F)s3)CC2)C1` (stereo not shown) [Example V16]: 80% and 5%.
Taken in the same sequence, the figures for `NC(=O)CNCCCS(=O)(=O)N1CCC(Nc2nc(N)c(C(=O)c3c(F)cccc3F)s2)CC1` [Example V17] were 78% and 0%.
With `Nc1nc(NC2CCN(S(=O)(=O)CCCNC3CCOC3=O)CC2)sc1C(=O)c1c(F)cccc1F` (stereo not shown) [Example V18], the inhibition at 0.05 µM at CDK2/Cyclin A is 22%. Besides, in the experiment on HCT-116 cell line, the inhibition at 0.175 µM was found to be 0%.
Regarding `CC(=O)NCCNCCCS(=O)(=O)N1CCC(Nc2nc(N)c(C(=O)c3c(F)cccc3F)s2)CC1` [Example V19], the inhibition at 0.05 µM at CDK2/Cyclin A was found to be 59%. Also, the inhibition at 0.175 µM in the experiment with HCT-116 cell line was 13%.
As for `Nc1nc(NC2CCN(S(=O)(=O)CCCNCC3CCCO3)CC2)sc1C(=O)c1c(F)cccc1F` (stereo not shown) [Example V20], at CDK2/Cyclin A, the inhibition at 0.05 µM came to 81%. Also, the inhibition at 0.175 µM in the experiment with HCT-116 cell line turned out to be 9%.
Turning to `Nc1nc(NC2CCN(S(=O)(=O)CCCN[C@@H]3CONC3=O)CC2)sc1C(=O)c1c(F)cccc1F` [Example V21], the inhibition at 0.05 µM on CDK2/Cyclin A worked out at 86%. In addition, the inhibition at 0.175 µM in the experiment with HCT-116 cell line came to 10%.
Taken in the same sequence, the figures for `CN(C)C1CCN(CCCS(=O)(=O)N2CCC(Nc3nc(N)c(C(=O)c4c(F)cccc4F)s3)CC2)CC1` [Example V22] were 67% and 13%.
Take `Nc1nc(NC2CCN(S(=O)(=O)CCCNCc3ccncc3)CC2)sc1C(=O)c1c(F)cccc1F` [Example V23]: the inhibition at 0.05 µM on CDK2/Cyclin A came out at 87%. For the same compound, in the experiment with HCT-116 cell line, the inhibition at 0.175 µM came out at 24%.
The matching figures for `Nc1nc(NC2CCN(S(=O)(=O)CCCNCc3ccco3)CC2)sc1C(=O)c1c(F)cccc1F` [Example V24]: 89% and 48%.
For `Nc1nc(NC2CCN(S(=O)(=O)CCCN3CCC(O)CC3)CC2)sc1C(=O)c1c(F)cccc1F` [Example V25], the inhibition at 0.05 µM at CDK2/Cyclin A came out at 73%. The inhibition at 0.175 µM with HCT-116 cell line turned out to be 16%.
Taken in the same sequence, the figures for `Nc1nc(NC2CCN(S(=O)(=O)CCCNCc3ccccc3F)CC2)sc1C(=O)c1c(F)cccc1F` [Example V26] were 92% and 76%.
With `Cc1ccccc1CNCCCS(=O)(=O)N1CCC(Nc2nc(N)c(C(=O)c3c(F)cccc3F)s2)CC1` [Example V27], on CDK2/Cyclin A, the inhibition at 0.05 µM came to 93%. For the same compound, the inhibition at 0.175 µM in the experiment on HCT-116 cell line came out at 86%.
As for `Nc1nc(NC2CCN(S(=O)(=O)CCCNCc3cccs3)CC2)sc1C(=O)c1c(F)cccc1F` [Example V28], the inhibition at 0.05 µM on CDK2/Cyclin A is 91%. Also, the inhibition at 0.175 µM in the experiment with HCT-116 cell line is 33%.
The matching figures for `CC(=O)N1CCN(CCCS(=O)(=O)N2CCC(Nc3nc(N)c(C(=O)c4c(F)cccc4F)s3)CC2)CC1` [Example V29]: 81% and 0%.
Taken in the same sequence, the figures for `CN1CCCN(CCCS(=O)(=O)N2CCC(Nc3nc(N)c(C(=O)c4c(F)cccc4F)s3)CC2)CC1` [Example V30] were 78% and 8%.
The matching figures for `CC1CN(CCCS(=O)(=O)N2CCC(Nc3nc(N)c(C(=O)c4c(F)cccc4F)s3)CC2)CC(C)O1` (stereo not shown) [Example V31]: 83% and 48%.
With `CN(C)CCCN(C)CCCS(=O)(=O)N1CCC(Nc2nc(N)c(C(=O)c3c(F)cccc3F)s2)CC1` [Example V32], the inhibition at 0.05 µM at CDK2/Cyclin A is 78%. Further, the inhibition at 0.175 µM with HCT-116 cell line is 11%.
For the compound `CCN(CC)CCN(C)CCCS(=O)(=O)N1CCC(Nc2nc(N)c(C(=O)c3c(F)cccc3F)s2)CC1` [Example V33], on CDK2/Cyclin A, the inhibition at 0.05 µM was determined as 76%. For the same compound, the inhibition at 0.175 µM in the experiment with HCT-116 cell line came out at 16%.
The matching figures for `Nc1nc(NC2CCN(S(=O)(=O)CCCN3CCN(CCO)CC3)CC2)sc1C(=O)c1c(F)cccc1F` [Example V34]: 67% and 16%.
Taken in the same sequence, the figures for `CN1CCN(CCCS(=O)(=O)N2CCC(Nc3nc(N)c(C(=O)c4c(F)cccc4F)s3)CC2)CC1` [Example V35] were 72% and 17%.
For `Nc1nc(NC2CCN(S(=O)(=O)CCCN3CCCC(CO)C3)CC2)sc1C(=O)c1c(F)cccc1F` (stereo not shown) [Example V36], the inhibition at 0.05 µM at CDK2/Cyclin A came to 50%. Besides, the inhibition at 0.175 µM with HCT-116 cell line worked out at 8%.
`Nc1nc(NC2CCN(S(=O)(=O)CCCN3CCCCCC3)CC2)sc1C(=O)c1c(F)cccc1F` [Example V37]: the “% inhibition of CDK2 (@ 0.05 μM)” value at CDK2/Cyclin A (compound at 0.05 μM, 0.05 µM) is on record as 85%. In the experiment on HCT-116 cell line (HCT-116 cells, 0.175 µM), the “% inhibition HCT-116 in MTT @ 0.175 uM” value was 65%.
Regarding `Nc1nc(NC2CCN(S(=O)(=O)CCCN3CCCCC3CCO)CC2)sc1C(=O)c1c(F)cccc1F` (stereo not shown) [Example V38], the inhibition at 0.05 µM on CDK2/Cyclin A stood at 80%. Besides, the inhibition at 0.175 µM with HCT-116 cell line is 1%.
The matching figures for `Nc1nc(NC2CCN(S(=O)(=O)CCCN[C@H]3CC[C@H](O)CC3)CC2)sc1C(=O)c1c(F)cccc1F` [Example V39]: 84% and 0%.
With `COCCCNCCCS(=O)(=O)N1CCC(Nc2nc(N)c(C(=O)c3c(F)cccc3F)s2)CC1` [Example V40], on CDK2/Cyclin A, the inhibition at 0.05 µM came out at 80%. Moreover, in the experiment with HCT-116 cell line, the inhibition at 0.175 µM amounted to 0%.
Take `CC(=O)NC1CCN(CCCS(=O)(=O)N2CCC(Nc3nc(N)c(C(=O)c4c(F)cccc4F)s3)CC2)C1` (stereo not shown) [Example V41]: the inhibition at 0.05 µM on CDK2/Cyclin A was determined as 71%. In the experiment on HCT-116 cell line, the inhibition at 0.175 µM was determined as 14%.
Regarding `CC(O)CNCCCS(=O)(=O)N1CCC(Nc2nc(N)c(C(=O)c3c(F)cccc3F)s2)CC1` (stereo not shown) [Example V42], at CDK2/Cyclin A, the inhibition at 0.05 µM came out at 79%. In addition, the inhibition at 0.175 µM with HCT-116 cell line is 4%.
